The values that follow come from patent US8058475B2, “Substituted cyclohexylmethyl compounds” (Gruenenthal GmbH, priority 2005, dated 2011).

Like-named read-outs stand apart in the source and are kept apart here.

In this test the target is human μ-opiate receptor (Homo sapiens, UniProt P35372). Nature of the test: Affinity for the human μ-opiate receptor ([3H]-naloxone displacement, SPA, CHO-K1 membrane preparation). The test is classed as binding. The note with it: for inhibition at 1 µM: read-out: μ-Opioid receptor, % inhibition [1 μM]; for Ki: read-out: μ-Opioid receptor, Ki.
Chain of human μ-opiate receptor (P35372 whole entry): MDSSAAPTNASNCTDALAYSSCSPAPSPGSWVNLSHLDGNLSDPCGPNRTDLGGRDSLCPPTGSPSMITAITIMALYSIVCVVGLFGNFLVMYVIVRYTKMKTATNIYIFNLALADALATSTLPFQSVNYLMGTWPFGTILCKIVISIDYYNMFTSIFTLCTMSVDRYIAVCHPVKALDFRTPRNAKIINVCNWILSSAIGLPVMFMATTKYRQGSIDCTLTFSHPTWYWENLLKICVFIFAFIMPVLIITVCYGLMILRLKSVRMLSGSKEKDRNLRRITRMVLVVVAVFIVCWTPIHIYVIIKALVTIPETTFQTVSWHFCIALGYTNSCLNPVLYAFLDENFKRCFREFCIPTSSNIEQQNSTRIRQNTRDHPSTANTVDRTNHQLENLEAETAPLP
Where [1] appears, read: 1 μM test substance, inhibition of specific [3H]-naloxone binding.

Broadly, the inhibition is how much of the control response was suppressed. A word on the Ki: it is the equilibrium dissociation constant of an inhibitor or competing ligand from its target. Turning to `CN(C)C(c1ccccc1)C1CCC(CNC(=O)CC(C)(C)C)CC1` (stereo not shown) [compound 298, N-[4-(dimethylamino-phenyl-methyl)-cyclohexylmethyl]-3,3-dimethyl-butyramide], the inhibition at 1 µM was determined as 100% and the Ki is 4 nM.
For the molecule `Cc1cc(C2(O)CCC(C(c3ccccc3)N(C)C)CC2)ccc1F` (stereo not shown) [compound 151, 4-(dimethylamino-phenyl-methyl)-1-(4-fluoro-3-methyl-phenyl)-cyclohexanol], the inhibition at 1 µM under setting [1] is 71%.
`Cc1ccc(Oc2ncccc2C(=O)NCC2CCC(C(c3ccc(Cl)cc3)N(C)C)CC2)cc1` (stereo not shown) [compound 382, N-{4-[(4-chloro-phenyl)-dimethylamino-methyl]-cyclohexylmethyl}-2-p-tolyloxy-nicotinamide]: the inhibition at 1 µM was found to be 83%.
“4-((dimethylamino)(phenyl)methyl)-1-(4-fluoro-3-methylphenyl)cyclohexanol [compound 150]”: the “μ-Opioid receptor, % inhibition [1 μM]” value under setting [1] was 74%.
In the case of `COc1ccc(CN(C(C)=O)C2CCC(C(c3ccccc3)N(C)C)CC2)cc1` (stereo not shown) [compound 176, N-(4-((dimethylamino)(phenyl)methyl)cyclohexyl)-N-(4-methoxybenzyl)-acetamide], the inhibition at 1 µM was 86% and the Ki stood at 19 nM.
The corresponding values for `CCC(C(=O)NC1CCC(C(c2cccc(F)c2)N(C)C)CC1)c1ccccc1` (stereo not shown) [compound 273, N-{4-[dimethylamino-(3-fluoro-phenyl)-methyl]-cyclohexyl}-2-phenyl-butyramide] are 75% and 81 nM.
The corresponding values for `CN(C)C(c1ccccc1)C1CCC(NC(=O)c2cc(F)c(F)cc2F)CC1` (stereo not shown) [compound 196, N-[4-(dimethylamino-phenyl-methyl)-cyclohexyl]-2,4,5-trifluoro-benzamide] are 96% and 19 nM.
The corresponding values for `CC(Oc1ccccc1)C(=O)NCC1CCC(C(c2ccc(Cl)cc2)N(C)C)CC1` (stereo not shown) [compound 391, N-{4-[(4-chloro-phenyl)-dimethylamino-methyl]-cyclohexylmethyl}-2-phenoxy-propionamide] are 81% and 26 nM.
As to `CN(C)C(c1ccc(Cl)cc1)C1CCC(CNC(=O)c2ccccc2Cl)CC1` (stereo not shown) [compound 354, 2-chloro-N-{4-[(4-chloro-phenyl)-dimethylamino-methyl]-cyclohexylmethyl}-benzamide], the inhibition at 1 µM came to 86% and the Ki is 53 nM.
In the same order, the values of `Cc1c(S(=O)(=O)c2ccc(Cl)cc2)csc1C(=O)NC1CCC(C(c2ccccc2)N(C)C)CC1` (stereo not shown) [compound 233, 4-(4-chloro-benzenesulfonyl)-3-methyl-thiophene-2-carboxylic acid [4-(dimethylamino-phenyl-methyl)-cyclohexyl]-amide] are 84% and 71 nM.
With `CN(C)C(c1cccc(F)c1)C1CCC(NC(=O)Cc2ccc(Cl)cc2)CC1` (stereo not shown) [compound 274, 2-(4-chloro-phenyl)-N-{4-[dimethylamino-(3-fluoro-phenyl)-methyl]-cyclohexyl}-acetamide], the inhibition at 1 µM was found to be 74% and the Ki was determined as 99 nM.
In the same order, the values of `CN(C)C(c1cccc(F)c1)C1CCC(CNC(=O)c2cccs2)CC1` (single isomer, unassigned) [compound 334, thiophene-2-carboxylic acid {4-[dimethylamino-(3-fluoro-phenyl)-methyl]-cyclohexylmethyl}-amide] are 92% and 62 nM.
With `CN(C)C(c1ccc(F)cc1)C1CCC(CCNC(=O)c2ccc3ccccc3c2)CC1` (stereo not shown) [compound 442, naphthalene-2-carboxylic acid (2-{4-[dimethylamino-(4-fluoro-phenyl)-methyl]-cyclohexyl}-ethyl)-amide], the inhibition at 1 µM turned out to be 86% and the inhibition constant Ki stood at 110 nM.
Turning to `CN(C)C(c1cccs1)C1CCC(CCNC(=O)c2csc3ccccc23)CC1` (stereo not shown) [compound 465, benzo[b]thiophene-3-carboxylic acid {2-[4-(dimethylamino-thiophen-2-yl-methyl)-cyclohexyl]-ethyl}-amide], the inhibition at 1 µM was 99% and the Ki stood at 3.1 nM.
As to `CN(C)C(c1ccccc1)C1CCC(NC(=O)c2cccc(C#N)c2)CC1` (stereo not shown) [compound 261, 3-cyano-N-[4-(dimethylamino-phenyl-methyl)-cyclohexyl]-benzamide], the inhibition at 1 µM worked out at 78% and the Ki stood at 130 nM.
`CCCc1ccc(C(=O)NCC2CCC(C(c3cccs3)N(C)C)CC2)cc1` (stereo not shown) [compound 356, N-[4-(dimethylamino-thiophen-2-yl-methyl)-cyclohexylmethyl]-4-propyl-benzamide]: the inhibition at 1 µM was 86% and the inhibition constant Ki came out at 120 nM.
`CN(C)C(c1cccc(F)c1)C1CCC(CCNC(=O)c2cccc(Cl)c2)CC1` (single isomer, unassigned) [compound 401, 3-chloro-N-(2-{4-[dimethylamino-(3-fluoro-phenyl)-methyl]-cyclohexyl}-ethyl)-benzamide]: the Ki is 11 nM. Moreover, under “1 µM”, the “μ-Opioid receptor, % inhibition [1 μM]” value is 97%.
As for `CN(C)C(c1ccccc1)C1CCC(CCNC(=O)c2cccnc2Sc2ccc(Cl)cc2)CC1` (single isomer, unassigned) [compound 470, 2-(4-chloro-phenylsulfanyl)-N-{2-[4-(dimethylamino-phenyl-methyl)-cyclohexyl]-ethyl}-nicotinamide], the inhibition at 1 µM worked out at 91% and the Ki worked out at 71 nM.
As to `CN(C)C(c1ccc(F)cc1)C1CCC(CNC(=O)CC(C)(C)C)CC1` (stereo not shown) [compound 322, N-{4-[dimethylamino-(4-fluoro-phenyl)-methyl]-cyclohexylmethyl}-3,3-dimethyl-butyramide], the inhibition at 1 µM worked out at 95% and the inhibition constant Ki is 31 nM.
The corresponding values for `CN(C)C(c1cccs1)C1CCC(NC(=O)c2cncc(Br)c2)CC1` (stereo not shown) [compound 225, 5-bromo-N-[4-(dimethylamino-thiophen-2-yl-methyl)-cyclohexyl]-nicotinamide] are 87% and 20 nM.
Consider `COc1cccc(CC2(O)CCC(C(c3cccc(F)c3)N(C)C)CC2)c1` (stereo not shown) [compound 156, 4-[dimethylamino-(3-fluoro-phenyl)-methyl]-1-(3-methoxy-benzyl)-cyclohexanol], for which the inhibition at 1 µM under setting [1] was 73%.
Turning to `Cc1oc(-c2ccc(Cl)cc2)cc1C(=O)NC1CCC(C(c2ccccc2)N(C)C)CC1` (stereo not shown) [compound 232, 5-(4-chloro-phenyl)-2-methyl-furan-3-carboxylic acid [4-(dimethylamino-phenyl-methyl)-cyclohexyl]-amide], the inhibition at 1 µM was 84% and the Ki is 74 nM.
The corresponding values for `CN(C)C(c1ccc(F)cc1)C1CCC(NC(=O)c2ccc(F)cc2)CC1` (stereo not shown) [compound 262, N-{4-[dimethylamino-(4-fluoro-phenyl)-methyl]-cyclohexyl}-4-fluoro-benzamide] are 78% and 96 nM.
For the molecule `Cc1cc(C(=O)NC2CCC(C(c3cccs3)N(C)C)CC2)no1` (stereo not shown) [compound 224, 5-Methyl-isoxazole-3-carboxylic acid [4-(dimethylamino-thiophen-2-yl-methyl)-cyclohexyl]-amide], the inhibition at 1 µM was 87%.
As for `COc1ccccc1C(=O)NCC1CCC(C(c2cccs2)N(C)C)CC1` (stereo not shown) [compound 305, N-[4-(dimethylamino-thiophen-2-yl-methyl)-cyclohexylmethyl]-2-methoxy-benzamide], the inhibition at 1 µM worked out at 98% and the Ki was 12 nM.
In the same order, the values of `CN(C)C(c1cccs1)C1CCC(CNC(=O)CC(C)(C)C)CC1` (stereo not shown) [compound 301, N-[4-(dimethylamino-thiophen-2-yl-methyl)-cyclohexylmethyl]-3,3-dimethyl-butyramide] are 99% and 2.7 nM.
In the same order, the values of `CN(C)C(c1ccccc1)C1CCC(NC(=O)C2CCCCC2)CC1` (stereo not shown) [compound 272, cyclohexanecarboxylic acid [4-(dimethylamino-phenyl-methyl)-cyclohexyl]-amide] are 75% and 90 nM.
The corresponding values for `CCSc1ncccc1C(=O)NCC1CCC(C(c2ccccc2)N(C)C)CC1` (stereo not shown) [compound 310, N-[4-(dimethylamino-phenyl-methyl)-cyclohexylmethyl]-2-ethylsulfanyl-nicotinamide] are 98% and 16 nM.
Take `CN(C)C(c1cccc(F)c1)C1CCC(CCNC(=O)c2ccccc2Cl)CC1` (stereo not shown) [compound 404, 2-chloro-N-(2-{4-[dimethylamino-(3-fluoro-phenyl)-methyl]-cyclohexyl}-ethyl)-benzamide]: the inhibition at 1 µM came to 97% and the Ki was 19 nM.
`Cc1cc(C(=O)NCC2CCC(C(c3ccc(Cl)cc3)N(C)C)CC2)no1` (stereo not shown) [compound 385, 5-methyl-isoxazole-3-carboxylic acid {4-[(4-chloro-phenyl)-dimethylamino-methyl]-cyclohexylmethyl}-amide]: the inhibition at 1 µM was 82% and the Ki turned out to be 68 nM.
The corresponding values for `CN(C)C(c1ccccc1)C1CCC(NC(=O)c2cc(F)cc(C(F)(F)F)c2)CC1` (stereo not shown) [compound 190, N-[4-(dimethylamino-phenyl-methyl)-cyclohexyl]-3-fluoro-5-trifluoromethyl-benzamide] are 99% and 25 nM.
Take `Cc1oc(-c2ccccc2)cc1C(=O)NC1CCC(C(c2ccccc2)N(C)C)CC1` (stereo not shown) [compound 214, 2-methyl-5-phenyl-furan-3-carboxylic acid [4-(dimethylamino-phenyl-methyl)-cyclohexyl]-amide]: the inhibition at 1 µM was found to be 91% and the Ki came out at 28 nM.
The corresponding values for `CN(C)C(c1ccccc1)C1CCC(NC(=O)c2scc(S(C)(=O)=O)c2Cl)CC1` (stereo not shown) [compound 252, 3-chloro-4-methanesulfonyl-thiophene-2-carboxylic acid [4-(dimethylamino-phenyl-methyl)-cyclohexyl]-amide] are 81% and 20 nM.
